This note sets out measurements from publication PMC5482218 (Archiv der Pharmazie, 2016).

For series [1], the system named is L-type calcium channels (LTCC). Nature of the series: High-throughput fluorescence Ca2+ flux assay. The following applies: for IC50: read-out: IC50 for the inhibition of K+-induced Ca2+ influx, PC12 cells loaded with Fura-2/AM, 10 min preincubation, depolarization with 50 mM KCl; for Dose-response profile / effect on K+-induced Ca2+ influx: PC12 cells, Fura-2/AM, 50 mM KCl.

Series [2] relates to PC12 cells.
In series [3] the test system is PC12 cells. As to the kind of experiment: LDH release cell viability assay, with and without 200 μM H2O2. The following applies: for Attenuation of H2O2-induced LDH release: 200 μM H2O2 24 h, p<0.05; for LDH release by compound alone (inherent toxicity): absence of H2O2, 100 μM, PC12 cells. The format is cell-based, rat.

As to `c1cc(CN2C3CCC4CC5CCC2C5C43)ccn1` (stereo not drawn) [Compound 14f, N-(Pyridin-4-ylmethyl)-3,11-azatricyclo[6.3.0.0^2,6]-undecane], the IC50 in series [1] came out at 5 µM. Turning to “N-Cyclohexylmethyl-3,11-azatricyclo[6.3.0.0^2,6]undecane [Compound 14d]”, the IC50 in series [1] came to 68 µM. Regarding “3-Hydroxy-3,11-oxatricyclo[6.3.0.0^2,6]undecane [Compound 11]”, the “Dose-response profile / effect on K+-induced Ca2+ influx” value (from here on “Dose-response profile / effect”) in series [1] is given as “potentiating effect”.

Turning to `O=C1CCC2CC3CCC(=O)C3C12` (stereo not drawn) [Compound 10, Tricyclo[6.3.0.0^2,6]undecane-3,11-dione], in series [1], the “Dose-response profile / effect” value was “slight potentiating effect but no antagonistic activity”. On to `OC12C3C4CC5C6C4C1C6C(C53)N2Cc1ccccc1` (stereo not drawn) [Compound 8a, N-Benzyl-3-hydroxy-4-azahexacyclo[5.4.1.0^2,6.0^3,10.0^5,9. 0^8,11]dodecane], for which the IC50 in series [1] was 35 µM. Turning to `OC12C3C4CC5C6C4C1C6C(C53)N2CCc1ccccc1` (stereo not drawn) [Compound 8b, N-Phenylethyl-3-hydroxy-4-azahexacyclo[5.4.1.0^2,6.0^3,10 0^5,9.0^8,11]dodecane], the “Protection in the cell viability assay (Trypan blue)” value in the series with PC12 cells [2] (200 μM H2O2, concentration not stated) is recorded as “able to offer protection”. Also, the “Change in cell viability by compound alone (Trypan blue exclusion)” value in the series on PC12 cells [2] (absence of H2O2, 10 and 100 μM, versus untreated cells) is “slight decrease in cell viability”. In series [1], the IC50 was found to be 8 µM. Besides, the “Attenuation of H2O2-induced LDH release” value in the series on PC12 cells [3] (compound at 1 and 10 μM) was “significant attenuation of LDH release”. The “LDH release by compound alone (inherent toxicity)” value with PC12 cells [3] is reported as “some LDH release”. Take `c1ccc(CNC23OC4C5C6CC(C7C6C4C72)C53)cc1` (stereo not drawn) [Compound 7a, 8-benzylamino-8,11-oxapentacyclo[5.4.0.0^2,6.0^3,10.0^5,9]undecane]: the “Reduction of H2O2-induced toxicity (Trypan blue exclusion)” value in the series with PC12 cells [2] (200 μM H2O2, compound at 1, 10 and 100 μM, p<0.05) was “significant reduction”. The IC50 in series [1] came out at 86 µM. The “Attenuation of H2O2-induced LDH release” value in the series on PC12 cells [3] (compound at 1, 10 and 100 μM) is reported as “significant attenuation of LDH release”. Moreover, the “LDH release by compound alone (inherent toxicity)” value in the series with PC12 cells [3] is given as “some LDH release”.

Turning to `COc1cccc(CN2C3CCC4CC5CCC2C5C43)c1` (stereo not drawn) [Compound 14e, N-(3-Methoxybenzyl)-3,11-azatricyclo[6.3.0.0^2,6]undecane], in series [1], the IC50 was found to be 11 µM. In the case of “N-Benzyl-3,11-azatricyclo[6.3.0.0^2,6]undecane [Compound 14a]”, the IC50 in series [1] was 74 µM. As for `O=C1C2C3CC4C2C(=O)C2C1C3C42` (stereo not drawn) [Compound 4, Pentacyclo[5.4.0.0^2,6.0^3,10.0^5,9]undecane-8,11-dione], in series [1], the “Dose-response profile / effect” value is listed as “no activity”. Take `CCCCCCCN1C2C3C4CC5C6C4C2C6C1(O)C53` (stereo not drawn) [Compound 8c, N-Heptyl-3-hydroxy-4-azahexacyclo[5.4.1.0^2,6.0^3,10.0^5,9. 0^8,11]dodecane]: in series [1], the IC50 came to 7 µM.
